Results: PubChem BioAssay AID1845202 (Molecular Pharmacology Branch, DTP, NCI, 2023)
“And” between values parts separate entries of the source, which are not always exact repeats. Identical values can stand only once.

System: DMS 114 tumor spheroids, viability % test/control
Experiment: Anticancer human tumor DMS 114 cell line growth inhibition;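 further: spheroids exposed to compounds for 7 days before read-out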;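 on viability, T/C: luminescence used as a proxy for viable cells; 100% = DMSO vehicle control viability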
Details: spheroids with HUVEC and MSC; for viability, T/C: stronger effect = lower value
Summary of the method: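 Complex tumor spheroids combined malignant cells with endothelial cells and mesenchymal stem cells. DNA-damaging drugs and DNA repair inhibitors were tested alone and in combination, at half-log dilutions down from clinical Cmax (top 10 microM if Cmax unknown), 0.25% DMSO final.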

**Q.** With Cn1ncnc1[C@H]1c2n[nH]c(=O)c3cc(F)cc(c23)N[C@@H]1c1ccc(F)cc1 + COc1cc2c(cc1O)CCNC21CSC2c3c(OC(C)=O)c(C)c4c(c3C(COC1=O)N1C(O)C3Cc5cc(C)c(OC)c(O)c5C(C21)N3C)OCO4 as the compound, how does the IC50 (curve of first compound, second compound 30 pM) read?
**A.** The IC50 was 428 nM.

**Q.** And the IC50 (curve of first compound, second compound 94.9 pM)?
**A.** Its IC50 is 104 nM.

**Q.** What about the IC50 (curve of first compound, second compound 0.0003 µM) of the same compound?
**A.** Its IC50 is < 9.49 nM.

**Q.** And the IC50 (curve of first compound, second compound 0.000949 µM)?
**A.** The IC50 was < 9.49 nM.

**Q.** What about the IC50 (curve of first compound, second compound 0.003 µM) of the same compound?
**A.** The IC50 was < 9.49 nM.

**Q.** What about the viability, T/C (second compound 30 pM, first compound 0.00949 µM) of the same compound?
**A.** The viability, T/C was 91.6%.

**Q.** What about the viability, T/C (second compound 30 pM, first compound 0.03 µM) of the same compound?
**A.** The viability, T/C was 91%.

**Q.** What about the viability, T/C (second compound 30 pM, first compound 0.0949 µM) of the same compound?
**A.** Its viability, T/C is 78.4%.

**Q.** What about the viability, T/C (second compound 30 pM, first compound 0.3 µM) of the same compound?
**A.** Its viability, T/C is 59.6%.

**Q.** And the viability, T/C (second compound 30 pM, first compound 0.949 µM)?
**A.** Its viability, T/C is 29.9%.

**Q.** What about the viability, T/C (second compound 30 pM, first compound 3 µM) of the same compound?
**A.** The viability, T/C was 10.4%.

**Q.** What about the viability, T/C (second compound 94.9 pM, first compound 0.00949 µM) of the same compound?
**A.** Its viability, T/C is 79.2%.

**Q.** And the viability, T/C (second compound 94.9 pM, first compound 0.03 µM)?
**A.** Its viability, T/C is 63.3%.

**Q.** What about the viability, T/C (second compound 94.9 pM, first compound 0.0949 µM) of the same compound?
**A.** The viability, T/C was 54.6%.

**Q.** And the viability, T/C (second compound 94.9 pM, first compound 0.3 µM)?
**A.** Its viability, T/C is 33.3%.

**Q.** And the viability, T/C (second compound 94.9 pM, first compound 0.949 µM)?
**A.** The viability, T/C was 16.5%.

**Q.** What about the viability, T/C (second compound 94.9 pM, first compound 3 µM) of the same compound?
**A.** Its viability, T/C is 7.38%.

**Q.** What about the viability, T/C (second compound 0.0003 µM, first compound 0.00949 µM) of the same compound?
**A.** Its viability, T/C is 21.8%.

**Q.** What about the viability, T/C (second compound 0.0003 µM, first compound 0.03 µM) of the same compound?
**A.** The viability, T/C was 20.3%.

**Q.** What about the viability, T/C (second compound 0.0003 µM, first compound 0.0949 µM) of the same compound?
**A.** The viability, T/C was 17.8%.

**Q.** What about the viability, T/C (second compound 0.0003 µM, first compound 0.3 µM) of the same compound?
**A.** Its viability, T/C is 16.6%.

**Q.** And the viability, T/C (second compound 0.0003 µM, first compound 0.949 µM)?
**A.** The viability, T/C was 10.7%.

**Q.** And the viability, T/C (second compound 0.0003 µM, first compound 3 µM)?
**A.** Its viability, T/C is 5.92%.

**Q.** What about the viability, T/C (second compound 0.000949 µM, first compound 0.00949 µM) of the same compound?
**A.** The viability, T/C was 2.67%.

**Q.** What about the viability, T/C (second compound 0.000949 µM, first compound 0.03 µM) of the same compound?
**A.** Its viability, T/C is 3.65%.

**Q.** And the viability, T/C (second compound 0.000949 µM, first compound 0.0949 µM)?
**A.** Its viability, T/C is 3.4%.

**Q.** What about the viability, T/C (second compound 0.000949 µM, first compound 0.3 µM) of the same compound?
**A.** The viability, T/C was 2.16%.

**Q.** What about the viability, T/C (second compound 0.000949 µM, first compound 0.949 µM) of the same compound?
**A.** The viability, T/C was 1.41%.

**Q.** What about the viability, T/C (second compound 0.000949 µM, first compound 3 µM) of the same compound?
**A.** Its viability, T/C is 0.78%.

**Q.** And the viability, T/C (second compound 0.003 µM, first compound 0.00949 µM)?
**A.** The viability, T/C was 0.32%.

**Q.** What about the viability, T/C (second compound 0.003 µM, first compound 0.03 µM) of the same compound?
**A.** The viability, T/C was 0.33%.

**Q.** And the viability, T/C (second compound 0.003 µM, first compound 0.0949 µM)?
**A.** Its viability, T/C is 0.3%.

**Q.** What about the viability, T/C (second compound 0.003 µM, first compound 0.3 µM) of the same compound?
**A.** Its viability, T/C is 0.32%.

**Q.** And the viability, T/C (second compound 0.003 µM, first compound 0.949 µM)?
**A.** The viability, T/C was 0.28%.

**Q.** What about the viability, T/C (second compound 0.003 µM, first compound 3 µM) of the same compound?
**A.** The viability, T/C was 0.49%.

**Q.** For CC[C@@]1(O)C(=O)OCc2c1cc1n(c2=O)Cc2cc3c(CN(C)C)c(O)ccc3nc2-1, which viability, T/C (compound 0.003 µM) is on record?
**A.** The viability, T/C was 107% [middle of 10 runs].

**Q.** And the viability, T/C (compound 0.03 µM)?
**A.** Its viability, T/C is 33.1% [middle of 10 runs].

**Q.** And the viability, T/C (compound 0.0949 µM)?
**A.** Its viability, T/C is 16.2% [middle of 10 runs].

**Q.** And the viability, T/C (compound 0.3 µM)?
**A.** Its viability, T/C is 10.4% [middle of 10 runs].

**Q.** And the IC50 (compound alone, run of 10/17/2019)?
**A.** Its IC50 is 22.3 nM [middle of 5 runs].

**Q.** What about the IC50 (compound alone, run of 10/25/2019) of the same compound?
**A.** The IC50 was 20.2 nM [middle of 5 runs].

**Q.** Which viability, T/C (compound 0.0316 µM) does the source give for COc1ccc([C@@H](O)c2cc(-c3ncnc4cc(N5CCOCC5)ccc34)c(F)cc2Cl)nn1 here?
**A.** The viability, T/C was 98.5% and 111% and 96.3%.

**Q.** What about the viability, T/C (compound 0.1 µM) of the same compound?
**A.** Its viability, T/C is 100% and 104% and 105%.

**Q.** And the viability, T/C (compound 0.316 µM)?
**A.** Its viability, T/C is 98% and 103% and 108%.

**Q.** What about the viability, T/C (compound 1 µM) of the same compound?
**A.** The viability, T/C was 98.8% and 121% and 100%.

**Q.** What about the viability, T/C (compound 3.16 µM) of the same compound?
**A.** Its viability, T/C is 81.9% and 95.8% and 92.8%.

**Q.** And the viability, T/C (compound 10 µM)?
**A.** The viability, T/C was 40.5% and 46.1% and 35.6%.

**Q.** And the IC50 (curve of compound)?
**A.** The IC50 was 7800 nM and 9150 nM and 7490 nM.
